In PubChem BioAssay AID1963983 (Molecular Pharmacology Branch, DTP, NCI, 2024):

System: 186277-243-T-J2-PDC multi-cell spheroid viability
Assay: Anticancer human tumor 186277-243-T-J2-PDC patient-derived colon adenocarcinoma cell line growth inhibition [PI3K]
Settings: for viability, T/C: stronger effect = lower value
Outline: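 High-throughput combination screen: PI3K inhibitors crossed with targeted small molecules on complex spheroids of tumor cells, HUVEC and MSCs at 37 degrees C, 5% CO2. Top concentration was at or near clinical Cmax (otherwise 10 microM), with half-log decrements.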

[1] = curve of first compound, second compound 0.00316 µM
[2] = curve of first compound, second compound 0.01 µM
[3] = curve of first compound, second compound 0.0316 µM
[4] = curve of first compound, second compound 0.1 µM
[5] = curve of first compound, second compound 0.316 µM
[6] = curve of first compound, second compound 1 µM
[7] = second compound 0.00316 µM, first compound 0.0316 µM
[8] = second compound 0.00316 µM, first compound 0.1 µM
[9] = second compound 0.01 µM, first compound 0.0316 µM
[10] = second compound 0.01 µM, first compound 0.1 µM
[11] = second compound 0.0316 µM, first compound 0.0316 µM
[12] = second compound 0.0316 µM, first compound 0.1 µM
[13] = second compound 0.1 µM, first compound 0.0316 µM
[14] = second compound 0.1 µM, first compound 0.1 µM
[15] = second compound 0.316 µM, first compound 0.0316 µM
[16] = second compound 0.316 µM, first compound 0.1 µM
[17] = second compound 1 µM, first compound 0.0316 µM
[18] = second compound 1 µM, first compound 0.1 µM
[19] = second compound 0.00316 µM, first compound 0.316 µM
[20] = second compound 0.00316 µM, first compound 1 µM
[21] = second compound 0.00316 µM, first compound 3.16 µM
[22] = second compound 0.00316 µM, first compound 10 µM
[23] = second compound 0.01 µM, first compound 0.316 µM
[24] = second compound 0.01 µM, first compound 1 µM
[25] = second compound 0.01 µM, first compound 3.16 µM
[26] = second compound 0.01 µM, first compound 10 µM
[27] = second compound 0.0316 µM, first compound 0.316 µM
[28] = second compound 0.0316 µM, first compound 1 µM
[29] = second compound 0.0316 µM, first compound 3.16 µM
[30] = second compound 0.0316 µM, first compound 10 µM
[31] = second compound 0.1 µM, first compound 0.316 µM
[32] = second compound 0.1 µM, first compound 1 µM
[33] = second compound 0.1 µM, first compound 3.16 µM
[34] = second compound 0.1 µM, first compound 10 µM
[35] = second compound 0.316 µM, first compound 0.316 µM
[36] = second compound 0.316 µM, first compound 1 µM
[37] = second compound 0.316 µM, first compound 3.16 µM
[38] = second compound 0.316 µM, first compound 10 µM
[39] = second compound 1 µM, first compound 0.316 µM
[40] = second compound 1 µM, first compound 1 µM
[41] = second compound 1 µM, first compound 3.16 µM
[42] = second compound 1 µM, first compound 10 µM
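Also: spheroids exposed to compounds for seven days before viability reading.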
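For viability, T/C in this document: 100% = DMSO vehicle control viability.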

## CC(C)n1nc(-c2ccc3oc(N)nc3c2)c2c(N)ncnc21 + COc1c(OCCCN2CCOCC2)ccc2c3n(c(=NC(=O)c4cnc(N)nc4)nc12)CCN3
[1]
  IC50: 0.0497 µM
[2]
  IC50: 0.0422 µM
[3]
  IC50: 0.00538 µM
[4]
  IC50: < 0.000316 µM
[5]
  IC50: < 0.000316 µM
[6]
  IC50: < 0.000316 µM
Second compound 0.00316 µM, first compound 0.000316 µM
  viability, T/C: 108%
Second compound 0.00316 µM, first compound 0.001 µM
  viability, T/C: 81.1%
Second compound 0.00316 µM, first compound 0.00316 µM
  viability, T/C: 97.7%
Second compound 0.00316 µM, first compound 0.01 µM
  viability, T/C: 82.9%
[7]
  viability, T/C: 70.8%
[8]
  viability, T/C: 21.2%
Second compound 0.01 µM, first compound 0.000316 µM
  viability, T/C: 97.5%
Second compound 0.01 µM, first compound 0.001 µM
  viability, T/C: 103%
Second compound 0.01 µM, first compound 0.00316 µM
  viability, T/C: 86.5%
Second compound 0.01 µM, first compound 0.01 µM
  viability, T/C: 89.8%
[9]
  viability, T/C: 61%
[10]
  viability, T/C: 14.7%
Second compound 0.0316 µM, first compound 0.000316 µM
  viability, T/C: 74.2%
Second compound 0.0316 µM, first compound 0.001 µM
  viability, T/C: 70.6%
Second compound 0.0316 µM, first compound 0.00316 µM
  viability, T/C: 59.5%
Second compound 0.0316 µM, first compound 0.01 µM
  viability, T/C: 39%
[11]
  viability, T/C: 17.1%
[12]
  viability, T/C: 6.6%
Second compound 0.1 µM, first compound 0.000316 µM
  viability, T/C: 17%
Second compound 0.1 µM, first compound 0.001 µM
  viability, T/C: 17.5%
Second compound 0.1 µM, first compound 0.00316 µM
  viability, T/C: 14.3%
Second compound 0.1 µM, first compound 0.01 µM
  viability, T/C: 9.3%
[13]
  viability, T/C: 8.21%
[14]
  viability, T/C: 3.59%
Second compound 0.316 µM, first compound 0.000316 µM
  viability, T/C: 4.14%
Second compound 0.316 µM, first compound 0.001 µM
  viability, T/C: 7.06%
Second compound 0.316 µM, first compound 0.00316 µM
  viability, T/C: 4.26%
Second compound 0.316 µM, first compound 0.01 µM
  viability, T/C: 4.69%
[15]
  viability, T/C: 2.78%
[16]
  viability, T/C: 2.4%
Second compound 1 µM, first compound 0.000316 µM
  viability, T/C: 3.07%
Second compound 1 µM, first compound 0.001 µM
  viability, T/C: 1.73%
Second compound 1 µM, first compound 0.00316 µM
  viability, T/C: 3%
Second compound 1 µM, first compound 0.01 µM
  viability, T/C: 1.5%
[17]
  viability, T/C: 3.24%
[18]
  viability, T/C: 1.04%

## CC1(C)CCC(CN2CCN(c3ccc(C(=O)NS(=O)(=O)c4ccc(NCC5CCOCC5)c([N+](=O)[O-])c4)c(Oc4cnc5[nH]ccc5c4)c3)CC2)=C(c2ccc(Cl)cc2)C1 + CC(Nc1ccc2c(c1)OCCn1cc(N3C(=O)OCC3C(F)F)nc1-2)C(N)=O
[1]
  IC50: 4.58 µM
[2]
  IC50: 4.54 µM
[3]
  IC50: 4.36 µM
[4]
  IC50: 3.65 µM
[5]
  IC50: 3.38 µM
[6]
  IC50: < 0.0316 µM
[7]
  viability, T/C: 97.8%
[8]
  viability, T/C: 99.7%
[19]
  viability, T/C: 95.3%
[20]
  viability, T/C: 91.9%
[21]
  viability, T/C: 71.2%
[22]
  viability, T/C: 5.92%
[9]
  viability, T/C: 107%
[10]
  viability, T/C: 94.3%
[23]
  viability, T/C: 95.1%
[24]
  viability, T/C: 95.3%
[25]
  viability, T/C: 71.1%
[26]
  viability, T/C: 3.55%
[11]
  viability, T/C: 106%
[12]
  viability, T/C: 108%
[27]
  viability, T/C: 99.4%
[28]
  viability, T/C: 89.4%
[29]
  viability, T/C: 71%
[30]
  viability, T/C: 2.8%
[13]
  viability, T/C: 98.6%
[14]
  viability, T/C: 99.9%
[31]
  viability, T/C: 87.5%
[32]
  viability, T/C: 78.3%
[33]
  viability, T/C: 60.3%
[34]
  viability, T/C: 2.37%
[15]
  viability, T/C: 86.1%
[16]
  viability, T/C: 83.3%
[35]
  viability, T/C: 67.5%
[36]
  viability, T/C: 71.1%
[37]
  viability, T/C: 56.2%
[38]
  viability, T/C: 0.63%
[17]
  viability, T/C: 47.5%
[18]
  viability, T/C: 44.8%
[39]
  viability, T/C: 46.3%
[40]
  viability, T/C: 46.1%
[41]
  viability, T/C: 34.4%
[42]
  viability, T/C: 0.99%

## Cc1nc(NC(=O)N2CCCC2C(N)=O)sc1-c1ccnc(C(C)(C)C(F)(F)F)c1 (configuration not stated)
Compound 0.1 µM
  viability, T/C: 104% [middle of 8 runs]
Compound 0.316 µM
  viability, T/C: 110% [middle of 8 runs]
Compound 1 µM
  viability, T/C: 102% [middle of 8 runs]
Compound 3.16 µM
  viability, T/C: 54.1% [middle of 8 runs]
Compound 10 µM
  viability, T/C: 16.6% [middle of 8 runs]
Compound alone, run of 05/08/2023
  IC50: 3.62 µM [middle of 8 runs]

## C=CC(=O)N1CCN(c2nc(=O)n(-c3c(C)ccnc3C(C)C)c3nc(-c4c(O)cccc4F)c(F)cc23)C(C)C1 (configuration not stated) + CC(Nc1ccc2c(c1)OCCn1cc(N3C(=O)OCC3C(F)F)nc1-2)C(N)=O
[1]
  IC50: > 10 µM
[2]
  IC50: > 10 µM
[3]
  IC50: > 10 µM
[4]
  IC50: > 10 µM
[5]
  IC50: 4.99 µM
[6]
  IC50: < 0.0316 µM
[7]
  viability, T/C: 109%
[8]
  viability, T/C: 88.5%
[19]
  viability, T/C: 94.7%
[20]
  viability, T/C: 94.9%
[21]
  viability, T/C: 109%
[22]
  viability, T/C: 93.9%
[9]
  viability, T/C: 103%
[10]
  viability, T/C: 99.4%
[23]
  viability, T/C: 107%
[24]
  viability, T/C: 101%
[25]
  viability, T/C: 103%
[26]
  viability, T/C: 102%
[11]
  viability, T/C: 104%
[12]
  viability, T/C: 102%
[27]
  viability, T/C: 105%
[28]
  viability, T/C: 112%
[29]
  viability, T/C: 115%
[30]
  viability, T/C: 87.2%
[13]
  viability, T/C: 103%
[14]
  viability, T/C: 107%
[31]
  viability, T/C: 88.3%
[32]
  viability, T/C: 94.4%
[33]
  viability, T/C: 86.6%
[34]
  viability, T/C: 74.4%
[15]
  viability, T/C: 82.2%
[16]
  viability, T/C: 74.8%
[35]
  viability, T/C: 67.7%
[36]
  viability, T/C: 74.7%
[37]
  viability, T/C: 56.9%
[38]
  viability, T/C: 37.4%
[17]
  viability, T/C: 48.2%
[18]
  viability, T/C: 50.1%
[39]
  viability, T/C: 50.9%
[40]
  viability, T/C: 48.1%
[41]
  viability, T/C: 32.8%
[42]
  viability, T/C: 22.9%
